Experimental data from ChEMBL document CHEMBL1240356, “Efficacy profiles of daptomycin for treatment of invasive and noninvasive pulmonary infections with Streptococcus pneumoniae” (2010).
The source made the active and inactive calls. The calls are words filed in the database; no cut-off is given here.

Experiments:
Streptococcus pneumoniae [1] = assay: Antibacterial activity against high dose 1.5 x 10^7 CFU Streptococcus pneumoniae serotype 2 infected in semitherapeutic C57BL/6 mouse model assessed as bacterial count in blood at 6 mg/kg, ip measured after 2 days post infection; assay type: functional; conditions: route intraperitoneal
Streptococcus pneumoniae [2] = assay: Antibacterial activity against low dose 5 x 10^6 CFU Streptococcus pneumoniae serotype 2 infected in semitherapeutic C57BL/6 mouse model assessed as bacterial count in lung at 6 mg/kg, ip measured after 10 day post infection; assay type: functional; conditions: route intraperitoneal
Streptococcus pneumoniae [3] = assay: Antibacterial activity against high dose 1.5 x 10^7 CFU Streptococcus pneumoniae serotype 19 infected in semitherapeutic C57BL/6 mouse model assessed as bacterial count in lung at 6 mg/kg, ip measured after 4 days post infection; assay type: functional; conditions: route intraperitoneal
Streptococcus pneumoniae [4] = assay: Antibacterial activity against high dose 1.5 x 10^7 CFU Streptococcus pneumoniae serotype 19 infected in semitherapeutic C57BL/6 mouse model assessed as bacterial count in lung at 6 mg/kg, ip measured after 5 day post infection; assay type: functional; conditions: route intraperitoneal
Streptococcus pneumoniae [5] = assay: Antibacterial activity against high dose 1.5 x 10^7 CFU Streptococcus pneumoniae serotype 2 infected in semitherapeutic C57BL/6 mouse model assessed as bacterial count in lung at 6 mg/kg, ip measured after 3 days post infection; assay type: functional; conditions: route intraperitoneal
Streptococcus pneumoniae [6] = assay: Antibacterial activity against high dose 1.5 x 10^7 CFU Streptococcus pneumoniae serotype 19 infected in semitherapeutic C57BL/6 mouse model assessed as reduction of bacteremia at 6 mg/kg, ip measured after 2 days post infection; assay type: functional, organism-based; parameters: dose 6 mg/kg
Streptococcus pneumoniae [7] = assay: Antibacterial activity against high dose 1.5 x 10^7 CFU Streptococcus pneumoniae serotype 2 infected in semitherapeutic C57BL/6 mouse model assessed as bacterial count in lung at 6 mg/kg, ip measured after 5 day post infection; assay type: functional; conditions: route intraperitoneal
Streptococcus pneumoniae [8] = assay: Antibacterial activity against high dose 1.5 x 10^7 CFU Streptococcus pneumoniae serotype 19 infected in semitherapeutic C57BL/6 mouse model assessed as reduction of bacteremia at 6 mg/kg, ip measured after 1 day post infection; assay type: functional, organism-based; parameters: dose 6 mg/kg
Streptococcus pneumoniae [9] = assay: Antibacterial activity against low dose 5 x 10^6 CFU Streptococcus pneumoniae serotype 19 infected in semitherapeutic C57BL/6 mouse model assessed as bacteremic mouse at 6 mg/kg, ip measured after 2 days post infection; assay type: functional, organism-based; parameters: dose 6 mg/kg
Streptococcus pneumoniae [10] = assay: Antibacterial activity against high dose 1.5 x 10^7 CFU Streptococcus pneumoniae serotype 2 infected in semitherapeutic C57BL/6 mouse model assessed as bacterial count in blood at 6 mg/kg, ip measured after 1 day post infection; assay type: functional; conditions: route intraperitoneal
Streptococcus pneumoniae [11] = assay: Antibacterial activity against 5 x 10^6 CFU Streptococcus pneumoniae serotype 2 infected in semitherapeutic C57BL/6 mouse model assessed as bacterial count in liver at 6 mg/kg, ip measured after 1 day post infection; assay type: functional; conditions: route intraperitoneal
Streptococcus pneumoniae [12] = assay: Antibacterial activity against high dose 1.5 x 10^7 CFU Streptococcus pneumoniae serotype 2 infected in therapeutic C57BL/6 mouse model assessed as bacterial count in blood at 6 mg/kg, ip measured after 3 days post infection; assay type: functional; conditions: route intraperitoneal
Streptococcus pneumoniae [13] = assay: Antibacterial activity against high dose 1.5 x 10^7 CFU Streptococcus pneumoniae serotype 19 infected in semitherapeutic C57BL/6 mouse model assessed as bacteremic mice at 6 mg/kg, ip measured after 5 day post infection; assay type: functional, organism-based; parameters: dose 6 mg/kg
Streptococcus pneumoniae [14] = assay: Antibacterial activity against 1.5 x 10^7 CFU Streptococcus pneumoniae serotype 19 infected in therapeutic C57BL/6 mouse model assessed as increase in compound level in BALF at 6 mg/kg, ip measured on day 3 post infection; assay type: functional, organism-based; parameters: dose 6 mg/kg
Streptococcus pneumoniae [15] = assay: Antibacterial activity against 5 x 10^6 CFU Streptococcus pneumoniae serotype 2 infected in semitherapeutic C57BL/6 mouse model assessed as bacterial count in lung at 6 mg/kg, ip measured after 1 day post infection; assay type: functional; conditions: route intraperitoneal
Streptococcus pneumoniae [16] = assay: Antibacterial activity against high dose 1.5 x 10^7 CFU Streptococcus pneumoniae serotype 2 infected in therapeutic C57BL/6 mouse model assessed as reduction of bacteremia at 6 mg/kg, ip measured after 5 day post infection; assay type: functional, organism-based; parameters: dose 6 mg/kg
Streptococcus pneumoniae [17] = assay: Antibacterial activity against high dose 1.5 x 10^7 CFU Streptococcus pneumoniae serotype 2 infected in semitherapeutic C57BL/6 mouse model assessed as reduction of bacteremiar at 6 mg/kg, ip measured after 3 days post infection; assay type: functional, organism-based; parameters: dose 6 mg/kg
Streptococcus pneumoniae [18] = assay: Antibacterial activity against 5 x 10^6 CFU Streptococcus pneumoniae serotype 2 infected in semitherapeutic C57BL/6 mouse model assessed as bacterial count in lung at 6 mg/kg, ip measured after 2 days post infection; assay type: functional; conditions: route intraperitoneal
Streptococcus pneumoniae [19] = assay: Antibacterial activity against low dose 5 x 10^6 CFU Streptococcus pneumoniae serotype 19 infected in semitherapeutic C57BL/6 mouse model assessed as bacterial count in lung at 6 mg/kg, ip measured after 2 days post infection; assay type: functional; conditions: route intraperitoneal
Streptococcus pneumoniae [20] = assay: Antibacterial activity against high dose 1.5 x 10^7 CFU Streptococcus pneumoniae serotype 2 infected in therapeutic C57BL/6 mouse model assessed as bacterial count in blood at 6 mg/kg, ip measured after 4 days post infection; assay type: functional; conditions: route intraperitoneal
Streptococcus pneumoniae [21] = assay: Antibacterial activity against 1.5 x 10^7 CFU Streptococcus pneumoniae serotype 2 infected in therapeutic C57BL/6 mouse model assessed as effect on leukocytes infiltration in BALF at 6 mg/kg, ip measured on day 3 post infection; assay type: functional, organism-based; parameters: dose 6 mg/kg
Streptococcus pneumoniae [22] = assay: Antibacterial activity against low dose 5 x 10^6 CFU Streptococcus pneumoniae serotype 2 infected in semitherapeutic C57BL/6 mouse model assessed as bacterial count in lung at 6 mg/kg, ip measured after 5 day post infection; assay type: functional; conditions: route intraperitoneal
Streptococcus pneumoniae [23] = assay: Antibacterial activity against high dose 1.5 x 10^7 CFU Streptococcus pneumoniae serotype 19 infected in semitherapeutic C57BL/6 mouse model assessed as bacterial count in lung at 6 mg/kg, ip measured after 3 days post infection; assay type: functional; conditions: route intraperitoneal
Streptococcus pneumoniae [24] = assay: Antibacterial activity against high dose 1.5 x 10^7 CFU Streptococcus pneumoniae serotype 2 infected in semitherapeutic C57BL/6 mouse model assessed as bacterial count in spleen at 6 mg/kg, ip measured after 2 days post infection; assay type: functional; conditions: route intraperitoneal
Streptococcus pneumoniae [25] = assay: Antibacterial activity against 1.5 x 10^7 CFU Streptococcus pneumoniae serotype 19 infected in therapeutic C57BL/6 mouse model assessed as effect on lung permeability at 6 mg/kg, ip measured on day 3 post infection; assay type: functional, organism-based; parameters: dose 6 mg/kg
Streptococcus pneumoniae [26] = assay: Antibacterial activity against high dose 1.5 x 10^7 CFU Streptococcus pneumoniae serotype 2 infected in semitherapeutic C57BL/6 mouse model assessed as bacterial count in spleen at 6 mg/kg, ip measured after 1 day post infection; assay type: functional; conditions: route intraperitoneal
Streptococcus pneumoniae [27] = assay: Antibacterial activity against high dose 1.5 x 10^7 CFU Streptococcus pneumoniae serotype 2 infected in semitherapeutic C57BL/6 mouse model assessed as bacterial count in lung at 6 mg/kg, ip measured after 2 days post infection; assay type: functional; conditions: route intraperitoneal
Streptococcus pneumoniae [28] = assay: Antibacterial activity against 1.5 x 10^7 CFU Streptococcus pneumoniae serotype 2 infected in therapeutic C57BL/6 mouse model assessed as survival rate at 6 mg/kg, ip qd beginning 2 days post infection measured after 3 days post infection; assay type: functional; conditions: route intraperitoneal
Streptococcus pneumoniae [29] = assay: Antibacterial activity against low dose 5 x 10^6 CFU Streptococcus pneumoniae serotype 2 infected in semitherapeutic C57BL/6 mouse model at 6 mg/kg, ip over a period of 14 days; assay type: functional, organism-based; parameters: dose 6 mg/kg
Streptococcus pneumoniae [30] = assay: Antibacterial activity against high dose 1.5 x 10^7 CFU Streptococcus pneumoniae serotype 2 infected in semitherapeutic C57BL/6 mouse model assessed as bacterial count in lung at 6 mg/kg, ip measured after 1 day post infection; assay type: functional; conditions: route intraperitoneal

Compound: CCCCCCCCCC(=O)N[C@@H](Cc1c[nH]c2ccccc12)C(=O)N[C@H](CC(N)=O)C(=O)N[C@@H](CC(=O)O)C(=O)N[C@@H]1C(=O)NCC(=O)N[C@@H](CCCN)C(=O)N[C@@H](CC(=O)O)C(=O)N[C@H](C)C(=O)N[C@@H](CC(=O)O)C(=O)NCC(=O)N[C@H](CO)C(=O)N[C@@H]([C@H](C)CC(=O)O)C(=O)N[C@@H](CC(=O)c2ccccc2N)C(=O)O[C@@H]1C
- log10cfu (Streptococcus pneumoniae [1]): 0.1
- log10cfu (Streptococcus pneumoniae [2]): 2.5
- log10cfu (Streptococcus pneumoniae [3]): 4.5
- log10cfu (Streptococcus pneumoniae [4]): 4.7
- log10cfu (Streptococcus pneumoniae [5]): 3.5
- Activity (Streptococcus pneumoniae [6]): Active
- log10cfu (Streptococcus pneumoniae [7]): 2.2
- Activity (Streptococcus pneumoniae [8]): Active
- Activity (Streptococcus pneumoniae [9]): Active
- log10cfu (Streptococcus pneumoniae [10]): 2.6
- log10cfu (Streptococcus pneumoniae [11]): 1.8
- log10cfu (Streptococcus pneumoniae [12]): 2.3
- Activity (Streptococcus pneumoniae [13]): Active
- Activity (Streptococcus pneumoniae [14]): Active
- log10cfu (Streptococcus pneumoniae [15]): 5.4
- Activity (Streptococcus pneumoniae [16]): Active
- Activity (Streptococcus pneumoniae [17]): Active
- log10cfu (Streptococcus pneumoniae [18]): 3.6
- log10cfu (Streptococcus pneumoniae [19]): 5.5
- log10cfu (Streptococcus pneumoniae [20]): 2.6
- Activity (Streptococcus pneumoniae [21]): Active
- log10cfu (Streptococcus pneumoniae [22]): 3.2
- log10cfu (Streptococcus pneumoniae [23]): 7.1
- log10cfu (Streptococcus pneumoniae [24]): 0.4
- Activity (Streptococcus pneumoniae [25]): Active
- log10cfu (Streptococcus pneumoniae [26]): 1.4
- log10cfu (Streptococcus pneumoniae [27]): 4.2
- Activity (Streptococcus pneumoniae [28]): 70%
- Activity (Streptococcus pneumoniae [29]): Active
- log10cfu (Streptococcus pneumoniae [30]): 6
